1 compound from US20230078913A1, “ANDROGEN RECEPTOR MODULATORS AND METHODS FOR USE AS PROTEOLYSIS TARGETING CHIMERA LIGANDS” (ESSA Pharma, Inc., priority 2019, published 2023) can be followed below.

For the test, the system named is androgen receptor (androgen-induced PSA-luciferase activity in LNCaP cells). As to the kind of experiment: Androgen-induced PSA (6.1 kb)-luciferase reporter assay in LNCaP cells. It is filed as cell-based. As to conditions: Homo sapiens; LNCaP cells transiently transfected with PSA (6.1 kb)-luciferase reporter; R1881 (1 nM), 24 h; normalized to maximum androgen-induced activity (vehicle only). The method, then: To determine the IC50, treatments were normalized to the maximum activity with androgen-induction (in the absence of test compounds, vehicle only) (Table 1).
Luciferase Assay: Lysates were thawed on ice then collected into V-bottom 96-well tissue culture plates. Lysates were centrifuged at 4° C. for 5 minutes at 4000 rpm. To measure luminescence of LNCaP cell lysates the Firefly Luciferase Assay System (Promega) was employed, according to manufacturer's protocol.
Comparisons between treatment and control groups were compared using Two-Way ANOVA with post-hoc Dunnett's and Tukey's tests. Differences were considered statistically significant at P values less than 0.05. Densitometric quantification of relative AR levels was determined by Image.
For orientation: In a reporter assay the amount or activity of a reporter protein is the signal.

As a reminder, the IC50 is the concentration needed to halve the response being measured. A low value points to greater potency. As to `C[C@H](Oc1ccc(C(C)(C)c2cc(Cl)c(OCCCl)c(C#N)c2)cc1)c1ccnc(NS(C)(=O)=O)n1` [Example A170], the IC50 was 651 nM.
